Measurements published in patent publication US12404304B1, “Telomerase reverse transcriptase (TERT) expression enhancing compounds and methods for using the same” (Sierra Sciences, LLC, priority 2007, dated 2025).

Columns and labels:
[1] = tested on: human TERT expression (hTERT mRNA); assay: Quantitative real-time RT-PCR of hTERT mRNA expression (Ct, transcripts) in compound-treated cells; type: cell-based; conditions: quantitative real-time RT-PCR
Source text: Telomerase is a ribonucleoprotein complex composed of the catalytic protein subunit (human telomerase reverse transcriptase or hTERT) and the RNA template. hTERT expression level can be measured by PCR.
Briefly, amplification of the target sequence is monitored per PCR cycle by detecting the fluorescence signal emitted by an internal probe that is degraded by the 5′ nuclease activity of the Taq polymerase. The emission signal accumulates in each sample, and the Ct required to reach a given fluorescence threshold is determined (Ct stands for Cycle Threshold and is a measure of the number of PCR cycles that are required to amplify a target—thus, a lower Ct score means that there is more abundant hTERT mRNA). Thus, the Ct value of a sample inversely correlates to the quantity of the starting cDNA which correlates to the number of mRNA transcripts. Using the cDNA of known quantity, a standard curve can be generated and used to determine the starting amount of mRNA transcripts based on the […] of each sample.
Quantitative real-time PCR can be done on cDNA from test compound-treated and nontreated cells by use of a ABI Prism 7900 Sequence Detection System (PE Applied Biosystems, Foster City, CA) following the Assays-on-Demand protocol (PE Applied Biosystems, Foster City, CA). Quantitative data can be analyzed using the Sequence Detection System software version 2.1 (PE Applied Biosystems).
The following compounds were tested in assays designed to identify compounds that enhance human TERT expression.

viable cells in culture = assay: Cell viability assay (CellTiter-Glo Luminescent Cell Viability Assay, ATP quantitation, percent of vehicle control)

| Structure (SMILES) | Average Number of hTERT Transcripts [1] | Average Cell Viability after 24 Hours (% DMSO) (viable cells in culture) |
| --- | --- | --- |
| CC1=NN(c2ccccc2)C(=O)C1C(=O)c1ccc(Br)cc1 (stereo not shown) [compound 1115] | 59.18 | 81.68 |
| Oc1cc(CSc2ccc(Cl)cc2)nn1-c1ccccc1 [compound 1116] | 102.70 | 75.26 |
| Cc1c2c(=O)n(-c3nc4ccccc4s3)nc-2cc(O)n1Cc1ccccc1 [compound 1117] | 57.88 | 84.16 |
| Cc1nnc(SCC2=NN(c3nc4ccccc4[nH]3)C(=O)C2)s1 [compound 1118] | 54.45 | 73.41 |
| O=C1CC(CSc2nnnn2-c2ccccc2)=NN1c1nc2ccccc2[nH]1 [compound 1119] | 125.15 | 62.38 |
| Cc1ccc(-c2cc(O)n(-c3nc4ccccc4[nH]3)n2)cc1 [compound 1120] | 118.82 | 52.50 |
| Oc1cc(-c2ccc(Cl)cc2)nn1-c1nc2ccccc2[nH]1 [compound 1121] | 119.73 | 52.77 |
| CCCC1=NN(c2ccc(Cl)cc2)C(=O)C1 [compound 1122] | 13.40 | 66.57 |
| Cc1csc(-n2nc(C)c(CC(=O)Nc3ccc(Br)cc3)c2O)n1 [compound 1123] | 58.23 | 79.37 |
| CCCCNC(=O)Cc1c(C)nn(-c2nc(C)c(C)s2)c1O [compound 1124] | 34.96 | 87.04 |
| Cc1nc(-n2nc(C)c(CC(=O)N3CCN(c4ccc(F)cc4)CC3)c2O)sc1C [compound 1125] | 82.95 | 78.39 |
| Cc1nc(-n2nc(C)c(CC(=O)N3CCCCC3)c2O)sc1C [compound 1126] | 75.66 | 95.13 |
| CCOC(=O)N1CCN(C(=O)Cc2c(C)nn(-c3nc(C)c(C)s3)c2O)CC1 [compound 1127] | 20.86 | 92.15 |
| Cc1nc(-n2nc(C)c(CC(=O)Nc3ccc(F)cc3)c2O)sc1C [compound 1128] | 42.25 | 86.93 |
| CCCCc1c(C)nn(-c2nc(C)c(C(=O)OCC)s2)c1O [compound 1129] | 54.36 | 68.77 |
| CCOC(=O)c1sc(-n2nc(C)c(Cc3ccc(C)cc3)c2O)nc1C [compound 1130] | 31.93 | 70.45 |
| CCOC(=O)c1sc(-n2nc(C)c(Cc3ccc(Cl)cc3)c2O)nc1C [compound 1131] | 95.19 | 75.57 |
| Cc1csc(-n2nc(C)c(CCC(=O)Nc3ccc(F)cc3)c2O)n1 [compound 1132] | 81.62 | 91.26 |
| Cc1csc(-n2nc(C)c(CCC(=O)Nc3ccc(Br)cc3)c2O)n1 [compound 1133] | 108.84 | 77.29 |
| Cc1csc(-n2nc(C)c(CCC(=O)Nc3ccc(Cl)cc3)c2O)n1 [compound 1134] | 127.97 | 87.25 |
| CCCCNC(=O)CCc1c(C)nn(-c2nc(C)c(C)s2)c1O [compound 1135] | 23.88 | 88.69 |
| Cc1nc(-n2nc(C)c(CCC(=O)N3CCN(c4ccc(F)cc4)CC3)c2O)sc1C [compound 1136] | 135.61 | 90.51 |
| Cc1nc(-n2nc(C)c(CCC(=O)N3CCCCC3)c2O)sc1C [compound 1137] | 81.62 | 81.10 |
| Cc1nc(-n2nc(C)c(CCC(=O)Nc3ccc(F)cc3)c2O)sc1C [compound 1138] | 162.66 | 87.23 |
| Cc1nc(-n2nc(C)c(CCC(=O)Nc3ccc(Br)cc3)c2O)sc1C [compound 1139] | 19.61 | 74.45 |

| Structure (SMILES) | Average Number of hTERT Transcripts [1] | Average Cell Viability after 24 Hours (% DMSO) (viable cells in culture) |
| --- | --- | --- |
| Cc1nnc(SCc2cc(O)n(-c3nc4ccccc4s3)n2)s1 [compound 1141] | 19.39 | 71.38 |
| Cc1ccc(Cc2c(C)nn(-c3nc4ccccc4[nH]3)c2O)cc1 [compound 1143] | 22.65 | 35.07 |
| Cc1nn(-c2nc3ccccc3[nH]2)c(O)c1Cc1ccccc1Cl [compound 1144] | 54.47 | 40.68 |
| Cc1nn2c(=O)c(Cc3ccccc3)c(C)[nH]c2c1-c1ccc(Cl)cc1 [compound 1145] | 76.07 | 63.03 |
| Cc1[nH]c2c(-c3ccc(Cl)cc3)cnn2c(=O)c1Cc1ccccc1 [compound 1146] | 57.84 | 63.23 |
| Cc1[nH]c2c(-c3cccc(Br)c3)cnn2c(=O)c1Cc1ccccc1 [compound 1147] | 29.83 | 61.72 |
| O=c1cc(Cc2ccccc2)[nH]c2c(-c3ccccc3)c(-c3ccccc3)nn12 [compound 1148] | 108.34 | 88.31 |
| O=c1cc(Cc2ccccc2)[nH]c2c(-c3ccc(Cl)cc3)cnn12 [compound 1149] | 91.14 | 87.19 |
| COc1ccc(-c2cc(=O)n3nc(C)c(-c4ccccc4)c3[nH]2)cc1 [compound 1150] | 80.37 | 86.82 |
| Cc1ccc(-c2cc(=O)n3nc(C)c(-c4ccccc4)c3[nH]2)cc1 [compound 1151] | 164.58 | 77.04 |
| Cc1nn2c(=O)cc(-c3ccccc3)[nH]c2c1-c1ccc(F)cc1 [compound 1152] | 64.86 | 73.68 |
| Cc1nn2c(=O)c(Cl)c(C)[nH]c2c1-c1ccccc1 [compound 1153] | 5.84 | 88.39 |
| COc1ccc(-c2cc(=O)n3nc(C)c(-c4ccc(F)cc4)c3[nH]2)cc1 [compound 1154] | 48.37 | 69.15 |
| CCCc1c(C)[nH]c2c(-c3ccc(Cl)cc3)c(C)nn2c1=O [compound 1155] | 15.30 | 80.19 |
| Cc1nn2c(=O)cc(-c3ccc(Cl)cc3)[nH]c2c1-c1ccccc1 [compound 1156] | 45.97 | 61.07 |
| Cc1cc(=O)n2ncc(-c3ccc(Cl)cc3)c2[nH]1 [compound 1157] | 16.13 | 71.08 |
| CCCc1cc(=O)n2ncc(-c3ccc(Cl)cc3)c2[nH]1 [compound 1158] | 71.35 | 62.57 |
| O=c1c2c([nH]c3c(-c4ccc(Cl)cc4)cnn13)CCCC2 [compound 1159] | 5.22 | 55.24 |
| O=c1c2c([nH]c3c(-c4ccc(Cl)cc4)cnn13)CCC2 [compound 1160] | 54.13 | 59.19 |
| O=c1c(-c2ccccc2)c[nH]c2c(-c3ccccc3)cnn12 [compound 1161] | 139.82 | 62.93 |
| Cc1nn2c(=O)cc(-c3ccccc3)[nH]c2c1-c1ccccc1 [compound 1162] | 113.08 | 65.07 |
| Cc1nn2c(=O)cc(CSc3nnnn3-c3ccccc3)[nH]c2c1-c1ccc(Cl)cc1 [compound 1163] | 68.40 | 70.88 |
| Cc1nn2c(=O)cc(-c3ccccc3Cl)[nH]c2c1-c1ccccc1 [compound 1164] | 56.66 | 71.68 |
| Cc1nn2c(=O)c(Cc3ccc(Br)cc3)c(C)[nH]c2c1-c1ccccc1 [compound 1165] | 132.12 | 55.73 |
| Cc1nn2c(=O)c(Cc3cccc(Cl)c3)c(C)[nH]c2c1-c1ccccc1 [compound 1166] | 152.34 | 77.99 |
